Among the data in the METLIN SMRT retention time set (Domingo-Almenara et al. 2019) are RP-LC retention time values, retold here.

The nature of this data set: gradient 5% acetonitrile 3 min, to 50% in 2 min, to 85% in 15 min, held 3 min, 100 µL/min. The settings on record: column: Zorbax Extend-C18 2.1 x 50 mm; eluents: water / acetonitrile, 0.1% formic acid. In a few lines: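 In both positive and negative ionization mode, a quadrupole time-of-flight mass spectrometer coupled to HPLC analyzed pure standards run in mixtures of ~100 molecules. The Zorbax Extend-C18 column (2.1 × 50 mm, 1.8 μm) was operated at 100 μL/min with water and acetonitrile, each containing 0.1% formic acid. The dead volume was 40 μL and the dwell volume 900 μL. Retention time came from adduct peaks that were computationally picked and individually inspected by hand.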
In the case of `CCN(C(=O)CCc1ccccc1)c1nc(-c2ccccc2)cs1`, the RP-LC retention time was 1320 s.

In turn, `O=C(CN1CCC2(CC1)N=C(c1ccc(Br)cc1)C(=O)N2)Nc1ccc(F)cc1` registered an RP-LC retention time of 700 s.

`CC(C)c1cccc(N2C=C(C(=O)N3CCOCC3)S(=O)(=O)c3ccccc32)c1` had an RP-LC retention time of 878 s.

`CC1=C(c2ccc(C)cc2)S(=O)(=O)N=C1N1CCCN(C(=O)C2CCOC2)CC1` (centres undefined) had an RP-LC retention time of 732 s.

Regarding `CSc1cccc(NC(=O)Cn2c(=O)c(CCC(=O)NCC(C)C)nc3ccccc32)c1`, the RP-LC retention time was determined as 846 s.

In the case of `Cc1noc(C)c1-c1ccc(S(=O)(=O)Nc2cccc(Cl)c2)cc1`, the RP-LC retention time was 966 s.

As to `Cc1nc(-c2cccs2)c(CCC(=O)Nc2nccs2)s1`, the RP-LC retention time turned out to be 752 s.

Compound `COc1ccccc1NC(=O)C1C(=O)NC2(C)CC1c1ccccc1O2` (centres undefined) registered an RP-LC retention time of 905 s.

As to `COc1ccccc1CN[C@@H]1CCCN[C@@H]1c1ccccc1`, the RP-LC retention time came out at 598 s.

With `COc1ccc(N2CCN(C(=O)c3[nH]c(C)c(S(=O)(=O)N4CCCC4)c3C)CC2)cc1`, the RP-LC retention time worked out at 748 s.

For `Cc1sc(-c2noc(C(C)C)n2)cc1S(=O)(=O)N1CCC(C(=O)N2CCOCC2)CC1`, the RP-LC retention time stood at 909 s.

`Cc1cc(C(=O)N2CC(N(C(=O)NC(C)C)C3CCOCC3)C2)nn1C` had an RP-LC retention time of 576 s.

`O=C(C1CCCCC1)N1CCN(c2nnc3ccc(C(F)(F)F)cn23)CC1` showed an RP-LC retention time of 817 s.

As to `COc1ccc(-c2nc3cc(C)ccn3c2NC(=O)c2ccc(Cl)cc2Cl)cc1`, the RP-LC retention time stood at 753 s.

As for `Cc1cc2occ(CN(C)CCN(C)Cc3cn(-c4cccc(C(F)(F)F)c4)c4ccccc34)c(=O)c2cc1C`, the RP-LC retention time came to 1090 s.

As to `Cc1ccn2cc(C(=O)N3CCN(c4ccccc4C)CC3)nc2c1`, the RP-LC retention time is 901 s.

The compound `CCn1nc(C)c(CCNC(=O)CCCn2c3ccccc3c3cnn(C)c(=O)c32)c1C` showed an RP-LC retention time of 698 s.

`Cc1c(F)cccc1NC(=O)N1CC(Cc2nncn2C(C)C)C1`: the RP-LC retention time amounted to 659 s.

In the case of `Cc1cc(-c2nnc(C3CCC3)o2)c(C)n1CC(=O)NCc1ccc(F)c(Cl)c1`, the RP-LC retention time was determined as 904 s.

In turn, `CCn1ccc2cc(S(=O)(=O)N3CCCC(C(=O)NCCCN(C)Cc4ccccc4)C3)ccc21` (centres undefined) returned an RP-LC retention time of 715 s.

`O=C(Cn1ccn2nc(-c3ccc(F)cc3)c(CO)c2c1=O)N1CCc2ccccc21` showed an RP-LC retention time of 857 s.

Compound `O=C(c1cccc(N2CCNC(c3ccccc3)C2)n1)N1CCCN(c2ncccn2)CC1` (centres undefined) gave an RP-LC retention time of 609 s.

For the compound `Cc1ccc(CN2CCC(C3CCN(S(C)(=O)=O)CC3)C2)nc1` (centres undefined), the RP-LC retention time came to 580 s.

`CCCn1cc(CCNC(=O)Nc2cccc(C)c2)c2cccnc21` came in with an RP-LC retention time of 782 s.

Take `CC(C)CCNC(=O)C1CCN(S(=O)(=O)c2ccc3c(c2)sc(=O)n3C)CC1`: the RP-LC retention time was found to be 832 s.

Regarding `CCn1c(=O)sc2cc(S(=O)(=O)N3CCC(C(=O)Nc4nc(C)cs4)CC3)ccc21`, the RP-LC retention time was found to be 827 s.

In turn, `CCCN1C(=O)c2cc(S(=O)(=O)NC(C)c3ccccc3)ccc2Oc2cccnc21` (centres undefined) displayed an RP-LC retention time of 1070 s.

Compound `Cc1cc(C)nc(N2CCN(c3nc(C)cc(C)c3C#N)CC2)n1` yielded an RP-LC retention time of 990 s.

With `Cc1cc(S(=O)(=O)N2CC(Cc3nncn3C3CCCC3)C2)ccc1Cl`, the RP-LC retention time was found to be 785 s.

`Cc1sc2ccn(Cc3ccc(F)cc3)c(=O)c2c1C(=O)NCC1CCCO1` (centres undefined): the RP-LC retention time worked out at 775 s.

With `CCCn1cc(C(=O)NCCN2CCCC2)c2cccnc21`, the RP-LC retention time worked out at 589 s.

Regarding `O=C(CC1CCCCC1)N1CCN(c2ccc(=O)n(-c3ccccc3)n2)CC1`, the RP-LC retention time amounted to 857 s.

Take `O=C(NC1CC1)C1CCN(c2nc3ccc(-c4cncnc4)nc3s2)CC1`: the RP-LC retention time was determined as 672 s.

Compound `Cc1cccc(NC(=O)N2CCN(c3nc4ccccc4nc3C(F)(F)F)CC2)c1` registered an RP-LC retention time of 1120 s.

The compound `Cc1noc(C)c1S(=O)(=O)NCC(c1cccs1)S(=O)(=O)c1ccc(F)cc1` (centres undefined) registered an RP-LC retention time of 847 s.

The compound `Cc1cccc(-c2noc(Cn3nc(-c4ccc(F)cc4)ccc3=O)n2)c1` came in with an RP-LC retention time of 1060 s.

Regarding `Cn1c(N2CCN(C(=O)c3c(F)cccc3F)CC2)cc(=O)n(C)c1=O`, the RP-LC retention time came to 648 s.

`Cn1c(=O)c(=O)n(CC(=O)NCCc2ccco2)c2cccnc21` came in with an RP-LC retention time of 646 s.

As to `Cc1cc(C)cc(NC(=O)N2CCC(CN3CCCC(C)C3)CC2)c1` (centres undefined), the RP-LC retention time was 648 s.

For `CC1(C)C(=O)NCCN1C(=O)c1cccc(Br)c1`, the RP-LC retention time came to 649 s.

Regarding `CCc1ccccc1NC(=O)C1CCc2sc(C(=O)N(C)C)cc2C1` (centres undefined), the RP-LC retention time amounted to 738 s.

As for `COc1ccccc1NC(=O)N1CCC(CNS(=O)(=O)c2cc(C)ccc2C)CC1`, the RP-LC retention time was found to be 735 s.

In turn, `CCc1nc2cc(-c3noc(C4(c5ccc(OC)cc5)CC4)n3)ccc2o1` registered an RP-LC retention time of 690 s.

`COc1ccc(-c2cc3nn(CC(=O)Nc4ccc(F)cc4)c(=O)n3c(C)n2)cc1` had an RP-LC retention time of 914 s.

Consider `Cc1cc(NC(=O)C2CCCN(c3ncnc4c3nc3n4CCCCC3)C2)no1` (centres undefined), for which the RP-LC retention time came to 751 s.

In turn, `CCn1nccc1C(=O)NCC1Cn2cccc2C(=O)N1CC(C)C` (centres undefined) came in with an RP-LC retention time of 698 s.

Regarding `CC1=C(c2ccc(C)cc2)S(=O)(=O)N=C1N1CCCN(C(=O)c2cccc(C#N)c2)CC1`, the RP-LC retention time came out at 885 s.

The compound `CC(C)(Oc1ccc(Cl)cc1)C(=O)OCn1nnc2ccccc2c1=O` yielded an RP-LC retention time of 1010 s.

Turning to `CC(C)Cc1nc(-c2ccccc2)oc1CC(=O)NCc1ccc(F)c(Cl)c1`, the RP-LC retention time was found to be 1080 s.

Compound `CCOC(=O)c1ccc(NC(=O)Cn2c(=O)n(-c3ccc(F)cc3)c(=O)c3c2cc(C)n3C)cc1` yielded an RP-LC retention time of 893 s.

As for `CCNC(=O)C1CCCN(C(=O)Nc2ccc(NC(=O)Nc3ccc(CC)cc3)cc2)C1` (centres undefined), the RP-LC retention time turned out to be 773 s.

`CC(=O)c1cccc(NC(=O)CCc2c(C)nn(-c3cc(N4CCCC4)ncn3)c2C)c1` came in with an RP-LC retention time of 765 s.

As to `CCC(=O)N(CCCOC)CC(=O)N1CCc2sccc2C1COc1ccccc1F` (centres undefined), the RP-LC retention time is 912 s.

Consider `O=C(Nc1ccccc1)N1CCc2nc(-c3ccc(Cl)cc3)ncc2C1`, for which the RP-LC retention time worked out at 997 s.

The compound `CCC(CC)C(=O)N1CCN(Cc2nc3cc(C(=O)N4CCCC4)ccc3n2C)CC1` gave an RP-LC retention time of 598 s.

In turn, `Cn1nccc1C(=O)N1CCC(NS(=O)(=O)c2ccc(Cl)cc2)CC1` returned an RP-LC retention time of 704 s.

For `Cn1c(CNC(=O)C2(Cc3ccccc3)CCCCC(=O)N2)nc2ccccc21` (centres undefined), the RP-LC retention time worked out at 630 s.

For the compound `O=C(c1ccn[nH]1)N1CCCC(Cn2c(C3CC3)nc3cccnc32)C1` (centres undefined), the RP-LC retention time is 578 s.

Compound `COc1ccc(-c2cc(C(=O)Nc3cc(C)ccc3C)nn2C2CCS(=O)(=O)C2)cc1` (centres undefined) yielded an RP-LC retention time of 982 s.

For `COc1ccc(OCC(=O)N2CCN(c3cc(C)n4cnnc4n3)CC2)cc1`, the RP-LC retention time came to 593 s.

Turning to `CC(C)c1ccc(OCC(O)Cn2c(C3CC3)nc3ccccc32)cc1` (centres undefined), the RP-LC retention time turned out to be 788 s.

Turning to `CCn1ccc(C(=O)NC(C)C)n1`, the RP-LC retention time stood at 642 s.

`CCn1cnc(S(=O)(=O)N2CCC(C(=O)Nc3cc(OC)cc(OC)c3)CC2)c1` showed an RP-LC retention time of 704 s.

Take `COCCn1c(C)cc(O)c(C(c2ccc(OC)cc2)N2CCC(C)CC2)c1=O` (centres undefined): the RP-LC retention time is 845 s.

As for `Cc1ccc(-n2ccc(=O)c(-c3nc(-c4ccccc4C)no3)n2)cc1`, the RP-LC retention time was determined as 987 s.

The compound `O=C(Cc1c(Sc2cccc(F)c2)[nH]c2ccccc12)N1CCN(c2ccccn2)CC1` displayed an RP-LC retention time of 699 s.

In the case of `O=C(c1ccco1)N1CCC(n2cnnc2-c2ccccc2)CC1`, the RP-LC retention time worked out at 639 s.

On to `O=C(Cn1nc(C(=O)N2CCCC2)c2ccccc21)Nc1cccc(C(F)(F)F)c1`, for which the RP-LC retention time was determined as 912 s.

As to `CCN(CC)c1cc(CNC(=O)Nc2cc(OC)ccc2OC)ccn1`, the RP-LC retention time came out at 632 s.

In turn, `Cc1nc(-c2ccccn2)cc2nn(CC(=O)N3CCCc4ccccc43)c(=O)n12` displayed an RP-LC retention time of 789 s.

The compound `CCOc1cc(CNc2ccc3[nH]c(=O)[nH]c3c2)cc(Br)c1OCC` yielded an RP-LC retention time of 717 s.

The compound `O=C1C(c2cccnc2)N(CC2CCCCC2)C(=O)CN1c1ccccc1` (centres undefined) registered an RP-LC retention time of 771 s.

`COc1ccc(NC(=O)N2CCCC2c2nc(-c3ccc(OC)cc3)no2)cc1` (centres undefined) showed an RP-LC retention time of 876 s.

As to `COc1ccc(-c2cn3c(CC(=O)Nc4nccs4)csc3n2)cc1OC`, the RP-LC retention time was determined as 653 s.

Consider `O=C(Nc1ccc(F)cc1F)c1c(O)c2cccnc2n(-c2ccccc2)c1=O`, for which the RP-LC retention time was found to be 1250 s.

The compound `COc1ccc(-c2cn3c(CC(=O)N4CCc5ccccc5C4)csc3n2)cc1OC` yielded an RP-LC retention time of 754 s.

On to `Cc1ccc(C(=O)N2CCC(COc3ccc(C(=O)NC(C)C)cc3)CC2)s1`, for which the RP-LC retention time was 888 s.

As for `CSc1ccc(CNC(=O)C2CCCN(c3cc(=O)n(C)c(=O)n3C)C2)cc1` (centres undefined), the RP-LC retention time amounted to 704 s.

Consider `CC1Oc2ccc(NC(=O)C3CCCC3)cc2CN(Cc2ccccc2F)C1=O` (centres undefined), for which the RP-LC retention time stood at 864 s.
